The test has as its target T1, M1 acetylcholine receptors (Homo sapiens, UniProt P11229).
T1 construct: expressed in transfected cells; host or cells: Chinese Hamster Ovary (CHO) cells, CMV vector
T1 sequence (P11229 1-460): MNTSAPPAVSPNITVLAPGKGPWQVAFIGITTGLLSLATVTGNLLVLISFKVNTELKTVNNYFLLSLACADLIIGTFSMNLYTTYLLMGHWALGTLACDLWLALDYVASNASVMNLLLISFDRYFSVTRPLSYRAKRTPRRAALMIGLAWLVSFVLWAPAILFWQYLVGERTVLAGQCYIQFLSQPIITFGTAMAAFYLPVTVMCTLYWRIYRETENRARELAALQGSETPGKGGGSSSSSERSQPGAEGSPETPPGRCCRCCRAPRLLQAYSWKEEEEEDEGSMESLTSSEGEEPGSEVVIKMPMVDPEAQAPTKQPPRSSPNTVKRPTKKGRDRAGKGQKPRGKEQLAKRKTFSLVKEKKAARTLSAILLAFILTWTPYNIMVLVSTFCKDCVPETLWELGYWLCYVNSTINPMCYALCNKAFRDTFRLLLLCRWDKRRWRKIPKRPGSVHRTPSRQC
Description: Phosphoinositide (PI) hydrolysis in transfected CHO cells. The class given is cell-based. The conditions noted are these: statement in words, no figures given. The procedure: The tubes are incubated for one hour at 37° C. The reaction is quenched with chloroform and the phosphatidyl inositols are extracted with methanol and chloroform. Phase separation is assured with the addition of methanol and water followed by centrifugation. The tritiated inositol phosphates are recovered on BioRad AG 1-X8 anion exchange resin in the formate cycle. After washing the resin with water and myo-inositol, the inositol phosphates are eluted with ammonium formate/formic acid, collected and subjected to liquid scintillation spectroscopy.

Results on one compound are retold here after patent US5773458A, “1-azabicycloheptane derivatives” (American Home Products Corporation, priority 1997, dated 1998).

Turning to `CNC(=O)O[C@@H]1C[N+]2([O-])CC[C@@H]1C2` (relative stereo) [Example 1, (exo)--Methylcarbamic acid 1-oxy-1-aza-bicyclo[2.2.1]hept-3-yl ester], the “functional m1 muscarinic agonism” value was “enhanced muscarinic agonism”.
